Tests used:
Format in all cases: in vivo
[1] = tested on: pharaoh ant (Monomorium pharaonis); assay: Test method 8: sugar-water filter paper test on pharaoh ant workers; settings: 0.05 ppm, 0.7 ml dilution in sugar water on filter paper, after 2 days, 25° C.
Procedure: (§1) Next, an efficacy of the Type 1 crystal of Compound (1) on controlling harmful arthropods is shown by Test examples. The following tests were conducted at 25° C.
(§2) Test compound is made to a formulation according to a similar method to that described in the Formulation example 1, and thereto is added 1.8 g of sucrose, followed by adding 3% sugar water to prepare a dilution containing a prescribed concentration of the test compound.
(§3) A filter paper having a diameter of 5.5 cm is spread on the bottom of the cup, and then 0.7 ml of the dilutions are added dropwise to the filter paper, and ten (10) pharaoh ant (Monomorium pharaonis) workers are released into the cup, and the cup is covered with the lid. After 2 days, the number of the dead and distressed individuals of pharaoh ant workers are counted, and the ratio of distressed and dead insects (%) is calculated by the following equation.
(§4) Here the dead individual is one whose behavior has completely stopped, and a distressed individual is one that cannot stand up when placed on its back and also cannot walk.

[2] = tested on: brown planthoppers (Nilaparvata lugens); assay: Test method 5: sprayed rice seedling with brown planthoppers; settings: 144 h, rice sprayed 10 mL/seedling, third instar larvae, after 6 days, 25° C., read-out: mortality of insects
Procedure: as §1
(§5) Test compound is made to a formulation according to a similar method to that described in the Formulation example 1, and thereto is added water containing 0.03 v/v % of Shindain (registered trademark) to prepare a dilution containing a prescribed concentration of the test compound.
Rice (Oryza sativa) seedling (on the developmental stage of the second leaf) is planted in a cup, and the dilutions are sprayed onto the seedling at a ratio of 10 mL/seedling. Thereafter, twenty (20) brown planthoppers (Nilaparvata lugens) at the third instar larval stage are released into the cup. After 6 days, the number of the surviving insects is counted, and the mortality of insects is calculated by the following equation.

[3] = tested on: diamondback moths (Plutella xylostella); assay: Test method 3: sprayed cabbage leaves fed to diamondback moths; settings: 120 h, cabbage sprayed 20 mL/seedling, second instar larvae, after 5 days, 25° C., read-out: mortality of insects
Procedure: as §1, §5
(§6) Cabbage (Brassicae oleracea) seedling (on the developmental stage of the second to third true leaf) is planted in a cup, and the dilutions are sprayed onto the seedling at a ratio of 20 mL/seedling. Thereafter, the stem and leaf thereof are cut out and then are placed into a cup that is lined with a filter paper. Five (5) diamondback moths (Plutella xylostella) at the second instar larval stage are released into the cup. After 5 days, the number of the surviving insects is counted, and the mortality of insects is calculated by the following equation.

[4] = tested on: cotton aphids (Aphis gossypii); assay: Test method 6: sprayed cucumber seedling, artificial rainfall, then cotton aphids released; settings: 0.5 ppm; cucumber sprayed 10 mL/seedling, dried, artificial rain 10 mm/hr for 1 hour; female adults released after one day; after 5 days; 25° C.
Procedure: Next, an efficacy of the Type 1 crystal of Compound (1) on controlling harmful arthropods is shown by Test examples. The following tests were conducted at 25° C. Test compound is made to a formulation according to a similar method to that described in the Formulation example 1, and thereto is added water containing 0.02 v/v % of Shindain (registered trademark) to prepare a dilution containing a prescribed concentration of the test compound. Only the second true leaves of Cucumber (Cucumis sativus) seedling (on the developmental stage of the third true leaf) are retained, and the other leaves are cut off, and the dilutions are sprayed onto the seedling at a ratio of 10 mL/seedling. After the dilution, which is treated, is dried, rain is given to the cucumber seedling with an artificial rainfall device at 10 mm/hr for 1 hour. After one day, 10 cotton aphids (Aphis gossypii) female adults are released onto the seedling. After 5 days, the number of the surviving insects is examined and the controlling value is calculated by the following equation. […]

[5] = tested on: German cockroach (Blattella germanica); assay: Test method 9: sugar-water filter paper test on German cockroach male adults; settings: 0.2 ppm, 0.7 ml dilution in sugar water on filter paper, after 5 days, 25° C.
Procedure: as §1, §2
as §3, with “five (5) German cockroach (Blattella germanica) male adults” for “and ten (10) pharaoh ant (Monomorium pharaonis) workers”, “5” for “2”, “German cockroach male adults” for “pharaoh ant workers”
as §4

[6] = tested on: common house mosquito (Culex pipiens pallens); assay: Test method 10: sugar-water filter paper test on common house mosquito female adults; settings: 0.8 ppm, 0.7 ml dilution in sugar water on filter paper, after 2 days, 25° C.
Procedure: as §1, §2
as §3, with “five (5) common house mosquito (Culex pipiens pallens) female adults” for “and ten (10) pharaoh ant (Monomorium pharaonis) workers”, “[…] female adults” for “pharaoh ant workers”
Here the dead individual is one whose behavior has completely stopped, and a distressed individual is one that cannot fly and also cannot walk.

[7] = tested on: Argentine ant (Linepithema humile); assay: Test method 7: sugar-water filter paper test on Argentine ant workers; settings: 0.2 ppm, 0.7 ml dilution in sugar water on filter paper, after 6 days, 25° C.
Procedure: as §1, §2
as §3, with “Argentine” for “pharaoh”, “(Linepithema humile)” for “(Monomorium pharaonis)”, “6” for “2”
as §4

[8] = tested on: common cutworms (Spodoptera litura); assay: Test method 2: sprayed cabbage leaves fed to common cutworms; settings: 120 h, cabbage sprayed 20 mL/seedling, second instar larvae, after 5 days, 25° C., read-out: mortality of insects
Procedure: as §1, §5
as §6, with “common cutworms (Spodoptera litura)” for “diamondback moths (Plutella xylostella)”

[9] = tested on: common house mosquitos (Culex pipiens pallens); assay: Test method 4: common house mosquito larvae released into dilution; settings: 24 h, last instar larvae released into dilution, after 1 day, 25° C., read-out: mortality of insects
Procedure: as §1
Test compound is made to a formulation according to a similar method to that described in the Formulation example 1, and thereto is added water to prepare a dilution containing a prescribed concentration of the test compound.
Into the dilution, 30 common house mosquitos (Culex pipiens pallens) at the last instar larval stage are released, and after 1 day, the state of the common house mosquito larvae is examined, and the mortality of insects is calculated by the following equation.

[10] = tested on: cotton aphids (Aphis gossypii); assay: Test method 1: spray on cucumber seedling infested with cotton aphids; settings: 500 ppm; sprayed 10 mL/seedling on cucumber one day after release of about 30 aphids (all stages); after 5 days; 25° C.
Procedure: Next, an efficacy of the Type 1 crystal of Compound (1) on controlling harmful arthropods is shown by Test examples. The following tests were conducted at 25° C. Test compound is made to a formulation according to a similar method to that described in the Formulation example 1, and thereto is added water containing 0.03 v/v % of Shindain (registered trademark) to prepare a dilution containing a prescribed concentration of the test compound. Cucumber (Cucumis sativus) seedling (on the developmental stage of the second true leaf) is planted in a cup, and approximately 30 cotton aphids (Aphis gossypii) (all stages of life) are released onto the seedling. After one day, the dilutions are sprayed onto the seedling at a ratio of 10 mL/seedling. After 5 days, the number of the surviving insects is examined and the controlling value is calculated by the following equation. […]

Row | SMILES | ratio of distressed and dead insects [1] [%] | mortality at 500 ppm [2] [%] | mortality at 500 ppm [3] [%] | controlling value [4] [%] | ratio of distressed and dead insects [5] [%] | ratio of distressed and dead insects [6] [%] | ratio of distressed and dead insects [7] [%] | mortality at 500 ppm [8] [%] | mortality at 3.5 ppm [9] [%] | controlling value [10] [%]
1 | CCS(=O)(=O)c1cc(C2CC2)cnc1-c1nc2cc([S+]([O-])C(F)(F)F)ccc2o1 (stereo not drawn) [Type 1 crystal of Compound (1), 2-(5-cyclopropyl-3-(ethylsulfonyl)pyridin-2-yl)-5-((trifluoromethyl)sulfinyl)benzo[d]oxazole] | 100 | ≥ 90 | ≥ 80 | 55.7 | 100 | 100 | 95 | ≥ 80 | ≥ 90 | ≥ 90
2 | CCS(=O)(=O)c1cc(C2CC2)cnc1-c1nc2cc([S+]([O-])C(F)(F)F)ccc2o1 (stereo not drawn) [amorphous of Compound (1), 2-(5-cyclopropyl-3-(ethylsulfonyl)pyridin-2-yl)-5-((trifluoromethyl)sulfinyl)benzo[d]oxazole] | 15 |  |  | 32.4 | 0 | 20 | 30 |  |  | 
